The nature of data set [1]: Binding affinity to MTDH /His-SND1 (unknown origin) expressed in Escherichia coli BL21(DE3) assessed as dissociation constant by fluorescence polarization assay. Also noted: species or system Homo sapiens. Background: Polarisation of emitted light reports the rotation of a fluorescent probe.
The nature of data set [2]: Drug uptake in human MDA-MB-231 cells assessed as increase in cell penetration at 10 uM incubated for 12 hrs by flow cytometry method. The data set is classed as ADME, cell-based. The note with it: mda-mb-231, 12 h. In general terms: In flow cytometry, cells or beads pass a laser one at a time.

Numbered stars: 1 amine (or outer) side, 2 acyl side, 3 side chain; on linkers, the order of the positions; unused ones are H or OH. Bridge positions count the residues as written; N and C are the ends. Square brackets hold non-standard residues; d marks the D form. Peptide text beside a SMILES is read from it. I, II: the chains in the order shown. ξ: configuration not given here. X1 = N[C@@H](CC(=O)[*:1])C(=O)[*:2]; Dap = NC[C@H](N)C(=O)O; ξD = NC(CC(=O)O)C(=O)O

This note sets out measurements from ChEMBL document CHEMBL5113517, “Structure-Based Design, Optimization, and Evaluation of Potent Stabilized Peptide Inhibitors Disrupting MTDH and SND1 Interaction” (J Med Chem, 2022).

By Kd is commonly meant the free concentration of one partner at which half of the binding sites on the other are occupied at equilibrium, for simple one-to-one binding.

For `C[C@H](NC(=O)[C@@H]1CCCN1C(=O)[C@@H]1CNC(=O)[C@@H](N)CC(=O)N[C@@H](Cc2c[nH]c3ccccc23)C(=O)N[C@@H](CC(N)=O)C(=O)N1)C(=O)N[C@@H](CCC(=O)O)C(=O)N[C@@H](CCC(=O)O)C(=O)N[C@@H](Cc1c[nH]c2ccccc12)C(=O)NCC(=O)N[C@@H](CC(N)=O)C(N)=O` (WN[Dap]PAEEWGN-NH2; linker N-3 via X1), the Kd in data set [1] turned out to be 584 nM.

For `C[C@H](NC(=O)[C@@H]1CCCN1C(=O)[C@@H]1CNC(=O)[C@@H](N)CC(=O)N[C@@H](Cc2c[nH]c3ccccc23)C(=O)N[C@@H](CC(N)=O)C(=O)N1)C(=O)N[C@@H](Cc1ccccc1)C(=O)N[C@@H](CCC(=O)O)C(=O)N[C@@H](Cc1c[nH]c2ccccc12)C(=O)NCC(=O)N[C@@H](CC(N)=O)C(N)=O` (WN[Dap]PAFEWGN-NH2; linker N-3 via X1), in data set [1], the equilibrium dissociation constant (Kd) was determined as 992 nM.

`CC[C@H](C)[C@H](NC(=O)[C@H](CC(N)=O)NC(=O)[C@H](Cc1c[nH]c2ccccc12)NC(=O)[C@H](CC(=O)O)NC(=O)[C@@H]1CNC(=O)[C@@H](N)CC(=O)N[C@@H](C)C(=O)N[C@@H](C)C(=O)N1)C(=O)N[C@@H](Cc1ccc(O)cc1)C(=O)N[C@@H](C)C(=O)N[C@@H](Cc1ccc(O)cc1)C(=O)N[C@@H](CCC(=O)O)C(=O)N[C@@H](Cc1c[nH]c2ccccc12)C(=O)NCC(=O)N[C@@H](CC(N)=O)C(=O)N[C@@H](Cc1c[nH]cn1)C(N)=O` (AA[Dap]DWNIYAYEWGNH-NH2; linker N-3 via X1): the dissociation constant (Kd) in data set [1] was found to be 671 nM.

Turning to `CC(C)[C@H](NC(=O)[C@H](Cc1c[nH]c2ccccc12)NC(=O)[C@H](CC(N)=O)NC(=O)CNC(=O)[C@H](Cc1c[nH]c2ccccc12)NC(=O)[C@H](CCC(=O)O)NC(=O)[C@H](CCC(=O)O)NC(=O)[C@H](C)NC(=O)[C@@H]1CCCN1C(=O)[C@@H]1CNC(=O)[C@@H](NC(=O)[C@@H](N)CC(=O)O)CC(=O)N[C@@H](Cc2c[nH]c3ccccc23)C(=O)N[C@@H](CC(N)=O)C(=O)N1)C(=O)N[C@@H](CC(=O)O)C(=O)N[C@@H](CCC(=O)O)C(N)=O`, the dissociation constant (Kd) in data set [1] is 121 nM. In addition, in data set [2], the Drug uptake result is listed as “Active”.

Turning to `CC(C)[C@H](NC(=O)[C@H](Cc1c[nH]c2ccccc12)NC(=O)[C@H](CC(N)=O)NC(=O)CNC(=O)[C@H](Cc1c[nH]c2ccccc12)NC(=O)[C@H](CCC(=O)O)NC(=O)[C@@H]1CNC(=O)CC(NC(=O)[C@H](CC(N)=O)NC(=O)[C@H](Cc2c[nH]c3ccccc23)NC(=O)[C@@H](N)CC(=O)O)C(=O)N2CCC[C@H]2C(=O)N[C@@H](C)C(=O)N1)C(=O)N[C@@H](CC(=O)O)C(=O)N[C@@H](CCC(=O)O)C(N)=O` (stereo partly specified) (H-DWN[ξD]PA[Dap]EWGNWVDE-NH2; lactam 4-7), in data set [1], the Kd turned out to be 171 nM. In data set [2], the Drug uptake result is recorded as “Active”.

For the molecule `C[C@H](NC(=O)[C@H](CO)NC(=O)[C@@H](N)CO)C(=O)N[C@@H](CC(=O)O)C(=O)N1CCC[C@H]1C(=O)N[C@@H](CC(N)=O)C(=O)N[C@@H](CO)C(=O)N[C@@H](CC(=O)O)C(=O)N[C@@H](Cc1c[nH]c2ccccc12)C(=O)N[C@@H](CC(N)=O)C(=O)N[C@@H](C)C(=O)N1CCC[C@H]1C(=O)N[C@@H](C)C(=O)N[C@@H](CCC(=O)O)C(=O)N[C@@H](CCC(=O)O)C(=O)N[C@@H](Cc1c[nH]c2ccccc12)C(=O)NCC(=O)N[C@@H](CC(N)=O)C(=O)O` (H-SSADPNSDWNAPAEEWGN-OH), the dissociation constant (Kd) in data set [1] was found to be 118 nM.

Regarding `C[C@H](NC(=O)[C@H](Cc1ccc(O)cc1)NC(=O)[C@@H]1CNC(=O)[C@@H](N)CC(=O)N[C@@H](Cc2c[nH]c3ccccc23)C(=O)N[C@@H](CC(N)=O)C(=O)N1)C(=O)N[C@@H](Cc1ccc(O)cc1)C(=O)N[C@@H](CCC(=O)O)C(=O)N[C@@H](Cc1c[nH]c2ccccc12)C(=O)NCC(=O)N[C@@H](CC(N)=O)C(N)=O` (WN[Dap]YAYEWGN-NH2; linker N-3 via X1), the Kd in data set [1] came to 943 nM.

With `C[C@H](NC(=O)[C@H](CC(N)=O)NC(=O)[C@@H]1CNC(=O)[C@@H](N)CC(=O)N[C@@H](Cc2c[nH]c3ccccc23)C(=O)N[C@@H](CC(N)=O)C(=O)N1)C(=O)N[C@@H](Cc1ccc(O)cc1)C(=O)N[C@@H](CCC(=O)O)C(=O)N[C@@H](Cc1c[nH]c2ccccc12)C(=O)NCC(=O)N[C@@H](CC(N)=O)C(N)=O` (WN[Dap]NAYEWGN-NH2; linker N-3 via X1), the Kd in data set [1] was 932 nM.

Take `C[C@H](NC(=O)[C@@H]1CCCN1C(=O)[C@H](C)NC(=O)[C@H](CC(N)=O)NC(=O)[C@H](Cc1c[nH]c2ccccc12)NC(=O)[C@@H](N)CC(=O)O)C(=O)N[C@@H](CCC(=O)O)C(=O)N[C@@H](CCC(=O)O)C(=O)N[C@@H](Cc1c[nH]c2ccccc12)C(=O)NCC(=O)N[C@@H](CC(N)=O)C(=O)O` (H-DWNAPAEEWGN-OH): in data set [1], the Kd stood at 211 nM.

Consider `CC(C)[C@H](NC(=O)[C@H](Cc1c[nH]c2ccccc12)NC(=O)[C@H](CC(N)=O)NC(=O)CNC(=O)[C@H](Cc1c[nH]c2ccccc12)NC(=O)[C@H](CCC(=O)O)NC(=O)[C@H](CCC(=O)O)NC(=O)[C@H](C)NC(=O)[C@@H]1CCCN1C(=O)[C@H](C)NC(=O)[C@H](CC(N)=O)NC(=O)[C@H](Cc1c[nH]c2ccccc12)NC(=O)[C@H](CC(=O)O)NC(=O)[C@H](CO)NC(=O)[C@@H](N)CC(N)=O)C(=O)O` (H-NSDWNAPAEEWGNWV-OH), for which the Kd in data set [1] came to 152 nM.

On to `C[C@H](NC(=O)[C@H](CC(N)=O)NC(=O)[C@@H]1CNC(=O)[C@@H](N)CC(=O)N[C@@H](Cc2c[nH]c3ccccc23)C(=O)N[C@@H](CC(N)=O)C(=O)N1)C(=O)N[C@@H](CCC(=O)O)C(=O)N[C@@H](CCC(=O)O)C(=O)N[C@@H](Cc1c[nH]c2ccccc12)C(=O)NCC(=O)N[C@@H](CC(N)=O)C(N)=O` (WN[Dap]NAEEWGN-NH2; linker N-3 via X1), for which the Kd in data set [1] turned out to be 697 nM.

`C[C@H](NC(=O)[C@H](CC(N)=O)NC(=O)[C@@H]1CNC(=O)[C@@H](N)CC(=O)N[C@@H](Cc2c[nH]c3ccccc23)C(=O)N[C@@H](CC(N)=O)C(=O)N1)C(=O)N[C@@H](Cc1ccccc1)C(=O)N[C@@H](CCC(=O)O)C(=O)N[C@@H](Cc1c[nH]c2ccccc12)C(=O)NCC(=O)N[C@@H](CC(N)=O)C(N)=O` (WN[Dap]NAFEWGN-NH2; linker N-3 via X1): the Kd in data set [1] was determined as 1720 nM.

`CC(C)[C@H](NC(=O)[C@H](Cc1c[nH]c2ccccc12)NC(=O)[C@H](CC(N)=O)NC(=O)CNC(=O)[C@H](Cc1c[nH]c2ccccc12)NC(=O)[C@H](CCC(=O)O)NC(=O)[C@H](CCC(=O)O)NC(=O)[C@H](C)NC(=O)[C@@H]1CCCN1C(=O)[C@H](C)NC(=O)[C@H](CC(N)=O)NC(=O)[C@H](Cc1c[nH]c2ccccc12)NC(=O)[C@H](CC(=O)O)NC(=O)[C@H](CO)NC(=O)[C@H](CC(N)=O)NC(=O)[C@@H]1CCCN1C(=O)[C@H](CC(=O)O)NC(=O)[C@H](C)NC(=O)[C@H](CO)NC(=O)[C@@H](N)CO)C(=O)N[C@@H](CC(=O)O)C(=O)N[C@@H](CCC(=O)O)C(=O)O` (H-SSADPNSDWNAPAEEWGNWVDE-OH): the Kd in data set [1] was 62.4 nM.

For `C[C@H](NC(=O)[C@@H]1CCCN1C(=O)[C@@H]1CNC(=O)[C@@H](N)CC(=O)N[C@@H](Cc2c[nH]c3ccccc23)C(=O)N[C@@H](CC(N)=O)C(=O)N1)C(=O)N[C@@H](Cc1ccc(O)cc1)C(=O)N[C@@H](CCC(=O)O)C(=O)N[C@@H](Cc1c[nH]c2ccccc12)C(=O)NCC(=O)N[C@@H](CC(N)=O)C(N)=O` (WN[Dap]PAYEWGN-NH2; linker N-3 via X1), the dissociation constant Kd in data set [1] was 585 nM.

With `CC[C@H](C)[C@H](NC(=O)[C@H](CC(N)=O)NC(=O)[C@H](Cc1c[nH]c2ccccc12)NC(=O)[C@H](CC(=O)O)NC(=O)[C@@H]1CNC(=O)[C@@H](N)CC(=O)N[C@@H](C)C(=O)N[C@@H](C)C(=O)N1)C(=O)N[C@@H](Cc1ccc(O)cc1)C(=O)N[C@@H](C)C(=O)N[C@@H](Cc1ccc(O)cc1)C(=O)N[C@@H](CCC(=O)O)C(=O)N[C@@H](Cc1c[nH]c2ccccc12)C(=O)NCC(=O)N[C@@H](CC(N)=O)C(=O)N[C@@H](CCC(=O)O)C(N)=O` (AA[Dap]DWNIYAYEWGNE-NH2; linker N-3 via X1), the Kd in data set [1] was found to be 451 nM.

Turning to `CC(C)[C@H](NC(=O)[C@H](Cc1c[nH]c2ccccc12)NC(=O)[C@H](CC(N)=O)NC(=O)CNC(=O)[C@H](Cc1c[nH]c2ccccc12)NC(=O)[C@@H]1CNC(=O)[C@@H](NC(=O)[C@H](C)NC(=O)[C@H](CC(N)=O)NC(=O)[C@H](Cc2c[nH]c3ccccc23)NC(=O)[C@@H](N)CC(=O)O)CC(=O)N[C@@H](C)C(=O)N[C@@H](CCC(=O)O)C(=O)N1)C(=O)N[C@@H](CC(=O)O)C(=O)N[C@@H](CCC(=O)O)C(N)=O` (I: AE[Dap]WGNWVDE-NH2 / II: H-DWNAD; amide I:3-II:C, I:N-II:5), in data set [1], the Kd stood at 171 nM. In data set [2], the Drug uptake result is recorded as “Active”.

In the case of `C[C@@H]1NC(=O)C[C@H](N)C(=O)NC[C@@H](C(=O)N[C@@H](CC(=O)O)C(=O)N[C@@H](Cc2c[nH]c3ccccc23)C(=O)N[C@@H](CC(N)=O)C(=O)N[C@@H](C)C(=O)N2CCC[C@H]2C(=O)N[C@@H](C)C(=O)N[C@@H](CCC(=O)O)C(=O)N[C@@H](CCC(=O)O)C(=O)N[C@@H](Cc2c[nH]c3ccccc23)C(=O)NCC(=O)N[C@@H](CC(N)=O)C(N)=O)NC(=O)[C@H](C)NC1=O` (AA[Dap]DWNAPAEEWGN-NH2; linker N-3 via X1), the Kd in data set [1] turned out to be 231 nM.

For `CC[C@H](C)[C@H](NC(=O)[C@H](CC(N)=O)NC(=O)[C@H](Cc1c[nH]c2ccccc12)NC(=O)[C@H](CC(=O)O)NC(=O)[C@@H]1CNC(=O)[C@@H](N)CC(=O)N[C@@H](C)C(=O)N[C@@H](C)C(=O)N1)C(=O)N[C@@H](Cc1ccc(O)cc1)C(=O)N[C@@H](C)C(=O)N[C@@H](Cc1ccc(O)cc1)C(=O)N[C@@H](CCC(=O)O)C(=O)N[C@@H](Cc1c[nH]c2ccccc12)C(=O)NCC(=O)N[C@@H](CC(N)=O)C(=O)N[C@@H](CC(=O)O)C(N)=O` (AA[Dap]DWNIYAYEWGND-NH2; linker N-3 via X1), in data set [1], the Kd is 443 nM.
